Test results as given in patent publication US6656509B1, “Combination of selenium-containing compounds with cytostatics” (Biosyn Arzneimittel GmbH, priority 1998, dated 2003).

Columns and labels:
[1] = oral; cited from earlier work
human tumor xenografts = test: clonogenic assay, all 12 xenografts (means, active/total); type: cell-based
Method: (§1) The cell mixture was passed through sieves of 200 μm and 50 μm mesh size and washed thereafter twice with PBS. The percentage of viable cells was determined in a Neubauer counting chamber using trypan blue exclusion.
(§2) 8×10^3 to 1,6×10^4 cells were added to 0.2 ml of the same culture medium together with 0.4% agar and placed in already coated 24-multiwell dishes. Test substances were applied by continuous exposure (drug overlay) in 0.2 ml medium. Every dish included six control wells containing the vehicle- and drug-treated groups in triplicate at six concentrations.
(§3) Cultures were incubated at 37° and 7% CO2 in a humidified atmosphere for 5 to 15 days (depending on the doubling time of the tumor stem cells) and monitored for colony growth using an inverted microscope. Within this period, in vitro tumor growth led to the formation of colonies with a diameter of ≧50 μm. At the time of maximum colony formation counts were performed with an automatic image analysis system (OMNICOM Fas IV, Biosys GmbH). […] Drug effects were expressed in terms of the percentage of surviving cells, obtained by comparison of the mean number of colonies in the treated plates with the mean colony count of the untreated controls (test-versus-control-group value, T/C=colony countTreated Group*100/colony countControl Group).
(§4) Coefficient of variation in the control group ≦50%. IC50 and IC70 values were determined by plotting compound concentration versus cell survival rate. Mean IC50 and IC70 values were calculated according to the formula: [formula]
(§5) with x=specific tumor xenograft and n=total number of tumor xenografts studied. If an IC50 or IC70 value could not be determined within the examined dose range, the lowest or highest concentration studied was used for the calculation.

[2] = test system: pancreatic cancer xenograft PAXF 736; test: clonogenic assay, single agents and combination studies; type: cell-based, human
Method: as §1, §2, §3, §4, §5
(§6) Each experiment included the chemotherapeutic agents in 6 concentrations, selenium in 2 concentrations (3 and 30 μM), and the combination of all doses with selenium at 3 and 30 μM. All compounds and combinations were studied in triplicates. […] Each experiment was performed twice.
(§7) T/Cexpectd(A+B)=T/C(A)×T/C(B)/100
(§8) For a zero-interactive drug combination (additivity of drug effects) T/Cexpected(A+B)[…]T/Cobserved(A+B). A drug combination is synergistic if T/Cobserved(A+B) is statistically significant[…]T/Cexpected(A+B). Statistical significance was determined by the T-test.

[3] = test system: pancreatic cancer xenograft PAXF 546; test: as above; type: cell-based, human
Method: as §1, §2, §3, §4, §5, §6, §7, §8

PRXF DU145X = test: clonogenic assay (colony forming assay); type: cell-based, human; conditions: PRXF DU145X/15, X229AM
Method: Solid human tumor xenografts growing subcutaneously in serial passages in thymus-aplastic nude mice (NMRI nu/nu strain, obtained from our own breeding facility) were removed under sterile conditions, the cells were mechanically disaggregated and subsequently incubated with an enzyme cocktail consisting of collagenase (1.2-1.8 U/ml, Worthington), DNAse (375 U/ml, Boehringer Mannheim) und hyaluronidase (29 U/ml, Boehringer Mannheim) in RPMI 1640 at 37° C. for 30 minutes. The cell mixture was passed through sieves of 200 μm and 50 μm mesh size and washed thereafter twice with PBS. The percentage of viable cells was determined in a Neubauer counting chamber using trypan blue exclusion.
The clonogenic assay was performed according to a modified two-layer soft agar assay described by Hamburger and Salmon (Hamburger and Salmon, Science, 197: 461463, 1977). The bottom layer consisted of 0.2 ml Iscoves' Modified Dulbecco's Medium with 20% fetal calf serum and 0.75% agar. 8×10^3 to 1,6×10^4 cells were added to 0.2 ml of the same culture medium together with 0.4% agar and placed in already coated 24-multiwell dishes. Test substances were applied by continuous exposure (drug overlay) in 0.2 ml medium. Every dish included six control wells containing the vehicle- and drug-treated groups in triplicate at six concentrations.
Cultures were incubated at 37° and 7% CO2 in a humidified atmosphere for 5 to 15 days (depending on the doubling time of the tumor stem cells) and monitored for colony growth using an inverted microscope. Within this period, in vitro tumor growth led to the formation of colonies with a diameter of ≧50 μm. At the time of maximum colony formation counts were performed with an automatic image analysis system (OMNICOM Fas IV, Biosys GmbH). 24 hours prior to this assay, vital colonies were stained with a sterile aqueous solution of 2-(4-iodophenyl)-3-(4-nitrophenyl)-5-phenyltetrazolium chloride (1 mg/ml, 100 μI/well). Drug effects were expressed in terms of the percentage of surviving cells, obtained by comparison of the mean number of colonies in the treated plates with the mean colony count of the untreated controls (test-versus-control-group value, T/C=colony countTreated Group*100/colony countControl Group).
as §4, §5

[4] = corresponding selenium concentration
[5] = mean over the xenografts studied

## O=[Se]([O-])[O-].[Na+].[Na+] [sodium selenite]
[1]
  intestinal absorption, sometimes: over 90%
Human tumor xenografts; 100 μM
  T/C values in all xenografts: below 20%
Human tumor xenografts; 1. μM
  active(++, +++)/total: 0/12
  active(++, +++)/total xenografts only, percent: 0%
Human tumor xenografts; 10. μM
  active(++, +++)/total: 2/12
  active(++, +++)/total xenografts only, percent: 17%
Human tumor xenografts; 100. μM
  active(++, +++)/total: 12/12
  active(++, +++)/total xenografts only, percent: 100%
Human tumor xenografts; .001 μM
  active(++, +++)/total: 0/12
  active(++, +++)/total xenografts only, percent: 0%
Human tumor xenografts; .01 μM
  active(++, +++)/total: 0/12
  active(++, +++)/total xenografts only, percent: 0%
Human tumor xenografts; .1 μM
  active(++, +++)/total: 0/12
  active(++, +++)/total xenografts only, percent: 0%
Human tumor xenografts; amounts up to 1 μM
  cytotoxic effect: no distinct cytotoxic effect
Human tumor xenografts; [4]
  mean IC50 as selenium concentration: 1,2 μg/ml
  mean IC70 as selenium concentration: 2.1 µg/mL
Human tumor xenografts; [5]
  IC50: 15.5 µM
  mean IC70: 27 µM
[2]; 3.0 μM alone, X265, X290
  Sodium selenite T/C in %: 81 ± 12%
[2]; 30.0 μM alone, X265
  Sodium selenite T/C in %: 43 ± 8%
[2]; 30.0 μM alone, X290
  Sodium selenite T/C in %: 5 ± 2%
[2]; 30.0 μM alone, X290, listed as selenium
  Sodium selenite T/C in %: 5%
[2]; PAXF 736/17, X184AM
  Test/control (%) at drug concentration [μM] 1.: 88%
  Test/control (%) at drug concentration [μM] 10.: 90%
  Test/control (%) at drug concentration [μM] 100.: 4%
  Test/control (%) at drug concentration [μM] .001: 87%
  Test/control (%) at drug concentration [μM] .01: 77%
  Test/control (%) at drug concentration [μM] .1: 94%
  Test/control (%) class at drug concentration [μM] 1.: − (− (T/C ≧ 50%))
  Test/control (%) class at drug concentration [μM] 10.: − (− (T/C ≧ 50%))
  Test/control (%) class at drug concentration [μM] 100.: +++ (+++ (T/C ≦ 10%))
  Test/control (%) class at drug concentration [μM] .001: − (− (T/C ≧ 50%))
  Test/control (%) class at drug concentration [μM] .01: − (− (T/C ≧ 50%))
  Test/control (%) class at drug concentration [μM] .1: − (− (T/C ≧ 50%))
[3]; 3.0 μM alone, X261, X295
  Sodium selenite T/C in %: 91 ± 8%
[3]; 30.0 μM alone, X261
  Sodium selenite T/C in %: 80 ± 13%
[3]; 30.0 μM alone, X295
  Sodium selenite T/C in %: 49 ± 6%
[3]; PAXF 546/2, *(2)
  Test/control (%) at drug concentration [μM] 1.: 104%
  Test/control (%) at drug concentration [μM] 10.: 88%
  Test/control (%) at drug concentration [μM] 100.: 2%
  Test/control (%) at drug concentration [μM] .001: 82%
  Test/control (%) at drug concentration [μM] .01: 112%
  Test/control (%) at drug concentration [μM] .1: 100%
  Test/control (%) class at drug concentration [μM] 1.: − (− (T/C ≧ 50%))
  Test/control (%) class at drug concentration [μM] 10.: − (− (T/C ≧ 50%))
  Test/control (%) class at drug concentration [μM] 100.: +++ (+++ (T/C ≦ 10%))
  Test/control (%) class at drug concentration [μM] .001: − (− (T/C ≧ 50%))
  Test/control (%) class at drug concentration [μM] .01: − (− (T/C ≧ 50%))
  Test/control (%) class at drug concentration [μM] .1: − (− (T/C ≧ 50%))
PRXF DU145X
  Test/control (%) at drug concentration [μM] 1.: 91%
  Test/control (%) at drug concentration [μM] 10.: 5%
  Test/control (%) at drug concentration [μM] 100.: 0%
  Test/control (%) at drug concentration [μM] .001: 97%
  Test/control (%) at drug concentration [μM] .01: 96%
  Test/control (%) at drug concentration [μM] .1: 92%
  Test/control (%) class at drug concentration [μM] 1.: − (− (T/C ≧ 50%))
  Test/control (%) class at drug concentration [μM] 10.: +++ (+++ (T/C ≦ 10%))
  Test/control (%) class at drug concentration [μM] 100.: +++ (+++ (T/C ≦ 10%))
  Test/control (%) class at drug concentration [μM] .001: − (− (T/C ≧ 50%))
  Test/control (%) class at drug concentration [μM] .01: − (− (T/C ≧ 50%))
  Test/control (%) class at drug concentration [μM] .1: − (− (T/C ≧ 50%))
PRXF DU145X; listed as selenium
  Test/control (%) at drug concentration [μM] 10.: < 30%
